Measured values as given in the supplement of paper PMC10307832.

Tests used:
Test in all cases: relative viability (nuclei count vs DMSO), 5 days (fraction); higher = more cells survive
[1] = compound: NS(=O)(=O)OC[C@@H]1C[C@@H](n2ccc3c(N[C@H]4CCc5ccccc54)ncnc32)C[C@@H]1O [MLN4924] + Cc1nc(NC(=O)N2CCC[C@H]2C(N)=O)sc1-c1ccnc(C(C)(C)C(F)(F)F)c1 [Alpelisib] (partner 2 µM)
In short: (§1)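 After 5 days of treatment, lung cancer cells in 1536-well plates were fixed and stained in a single step (final 0.05% Triton X-100, 1% formaldehyde, 1 ug/ml Hoechst) and their nuclei counted on 4× images. Treatment had been applied by pin tool the day after seeding as one drug alone or as a fixed anchor-drug dose with five library-drug doses (not always all listed) in √10 steps. Relative viability is the nuclei count of treated wells divided by that of vehicle wells, and values are medians of duplicate plates.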

[2] = compound: NS(=O)(=O)OC[C@@H]1C[C@@H](n2ccc3c(N[C@H]4CCc5ccccc54)ncnc32)C[C@@H]1O [MLN4924] + C[C@@H](Oc1cc(-c2cnn(C3CCNCC3)c2)cnc1N)c1c(Cl)ccc(F)c1Cl [Crizotinib] (partner 1 µM)
In short: as §1

[3] = compound: NS(=O)(=O)OC[C@@H]1C[C@@H](n2ccc3c(N[C@H]4CCc5ccccc54)ncnc32)C[C@@H]1O [MLN4924] + COc1cccc2cc(-c3nc([C@H]4CC[C@H](C(=O)O)CC4)n4ncnc(N)c34)[nH]c12 [OSI-027] (partner 0.5 µM)
In short: as §1

[4] = compound: NS(=O)(=O)OC[C@@H]1C[C@@H](n2ccc3c(N[C@H]4CCc5ccccc54)ncnc32)C[C@@H]1O [MLN4924] + COc1cc2c(Oc3ccc(NC(=O)C4(C(=O)Nc5ccc(F)cc5)CC4)cc3F)ccnc2cc1OCCCN1CCOCC1 [Foretinib] (partner 0.25 µM)
In short: as §1

Cell Line: H3255
- relative viability ([1]; first compound 0.04 µM): 0.694
- relative viability ([1]; first compound 0.1265 µM): 0.548
- relative viability ([1]; first compound 0.4 µM): 0.265
- relative viability ([1]; first compound 1.265 µM): 0.175
- relative viability ([1]; first compound 4 µM): 0.242
- relative viability ([2]; first compound 0.04 µM): 0.77
- relative viability ([2]; first compound 0.1265 µM): 0.668
- relative viability ([2]; first compound 0.4 µM): 0.341
- relative viability ([2]; first compound 1.265 µM): 0.242
- relative viability ([2]; first compound 4 µM): 0.247
- relative viability ([3]; first compound 0.04 µM): 0.578
- relative viability ([3]; first compound 0.1265 µM): 0.472
- relative viability ([3]; first compound 0.4 µM): 0.373
- relative viability ([3]; first compound 1.265 µM): 0.256
- relative viability ([3]; first compound 4 µM): 0.291
- relative viability ([4]; first compound 0.04 µM): 0.799
- relative viability ([4]; first compound 0.1265 µM): 0.746
- relative viability ([4]; first compound 0.4 µM): 0.34
- relative viability ([4]; first compound 1.265 µM): 0.285
- relative viability ([4]; first compound 4 µM): 0.278

Cell Line: HARA
- relative viability ([1]; first compound 0.04 µM): 0.716
- relative viability ([1]; first compound 0.1265 µM): 0.576
- relative viability ([1]; first compound 0.4 µM): 0.249
- relative viability ([1]; first compound 1.265 µM): 0.0868
- relative viability ([1]; first compound 4 µM): 0.0836
- relative viability ([2]; first compound 0.04 µM): 0.752
- relative viability ([2]; first compound 0.1265 µM): 0.401
- relative viability ([2]; first compound 0.4 µM): 0.349
- relative viability ([2]; first compound 1.265 µM): 0.0875
- relative viability ([2]; first compound 4 µM): 0.0794
- relative viability ([3]; first compound 0.04 µM): 0.465
- relative viability ([3]; first compound 0.1265 µM): 0.361
- relative viability ([3]; first compound 0.4 µM): 0.271
- relative viability ([3]; first compound 1.265 µM): 0.0502
- relative viability ([3]; first compound 4 µM): 0.0686
- relative viability ([4]; first compound 0.04 µM): 0.838
- relative viability ([4]; first compound 0.1265 µM): 0.537
- relative viability ([4]; first compound 0.4 µM): 0.83
- relative viability ([4]; first compound 1.265 µM): 0.0708
- relative viability ([4]; first compound 4 µM): 0.0645

Cell Line: HCC-15
- relative viability ([1]; first compound 0.04 µM): 0.537
- relative viability ([1]; first compound 0.1265 µM): 0.23
- relative viability ([1]; first compound 0.4 µM): 0.163
- relative viability ([1]; first compound 1.265 µM): 0.0818
- relative viability ([1]; first compound 4 µM): 0.0862
- relative viability ([2]; first compound 0.04 µM): 0.505
- relative viability ([2]; first compound 0.1265 µM): 0.2
- relative viability ([2]; first compound 0.4 µM): 0.227
- relative viability ([2]; first compound 1.265 µM): 0.0834
- relative viability ([2]; first compound 4 µM): 0.0819
- relative viability ([3]; first compound 0.04 µM): 0.347
- relative viability ([3]; first compound 0.1265 µM): 0.197
- relative viability ([3]; first compound 0.4 µM): 0.139
- relative viability ([3]; first compound 1.265 µM): 0.0813
- relative viability ([3]; first compound 4 µM): 0.0848
- relative viability ([4]; first compound 0.04 µM): 0.688
- relative viability ([4]; first compound 0.1265 µM): 0.219
- relative viability ([4]; first compound 0.4 µM): 0.183
- relative viability ([4]; first compound 1.265 µM): 0.109
- relative viability ([4]; first compound 4 µM): 0.0915

Cell Line: HCC-44
- relative viability ([1]; first compound 0.04 µM): 0.7
- relative viability ([1]; first compound 0.1265 µM): 0.347
- relative viability ([1]; first compound 0.4 µM): 0.162
- relative viability ([1]; first compound 1.265 µM): 0.15
- relative viability ([1]; first compound 4 µM): 0.134
- relative viability ([2]; first compound 0.04 µM): 0.65
- relative viability ([2]; first compound 0.1265 µM): 0.527
- relative viability ([2]; first compound 0.4 µM): 0.189
- relative viability ([2]; first compound 1.265 µM): 0.168
- relative viability ([2]; first compound 4 µM): 0.155
- relative viability ([3]; first compound 0.04 µM): 0.423
- relative viability ([3]; first compound 0.1265 µM): 0.263
- relative viability ([3]; first compound 0.4 µM): 0.171
- relative viability ([3]; first compound 1.265 µM): 0.216
- relative viability ([3]; first compound 4 µM): 0.233

Cell Line: HCC-78
- relative viability ([1]; first compound 0.04 µM): 0.429
- relative viability ([1]; first compound 0.1265 µM): 0.253
- relative viability ([1]; first compound 0.4 µM): 0.536
- relative viability ([1]; first compound 1.265 µM): 0.149
- relative viability ([1]; first compound 4 µM): 0.139
- relative viability ([2]; first compound 0.04 µM): 0.394
- relative viability ([2]; first compound 0.1265 µM): 0.451
- relative viability ([2]; first compound 0.4 µM): 0.739
- relative viability ([2]; first compound 1.265 µM): 0.159
- relative viability ([2]; first compound 4 µM): 0.172
- relative viability ([3]; first compound 0.04 µM): 0.416
- relative viability ([3]; first compound 0.1265 µM): 0.349
- relative viability ([3]; first compound 0.4 µM): 0.399
- relative viability ([3]; first compound 1.265 µM): 0.27
- relative viability ([3]; first compound 4 µM): 0.236
- relative viability ([4]; first compound 0.04 µM): 0.583
- relative viability ([4]; first compound 0.1265 µM): 0.653
- relative viability ([4]; first compound 0.4 µM): 0.84
- relative viability ([4]; first compound 1.265 µM): 0.247
- relative viability ([4]; first compound 4 µM): 0.194

Cell Line: HCC-366
- relative viability ([1]; first compound 0.04 µM): 0.58
- relative viability ([1]; first compound 0.1265 µM): 0.733
- relative viability ([1]; first compound 0.4 µM): 0.877
- relative viability ([1]; first compound 1.265 µM): 0.369
- relative viability ([1]; first compound 4 µM): 0.027
- relative viability ([2]; first compound 0.04 µM): 0.603
- relative viability ([2]; first compound 0.1265 µM): 0.66
- relative viability ([2]; first compound 0.4 µM): 0.797
- relative viability ([2]; first compound 1.265 µM): 0.211
- relative viability ([2]; first compound 4 µM): 0.0183
- relative viability ([3]; first compound 0.04 µM): 1.02
- relative viability ([3]; first compound 0.1265 µM): 0.895
- relative viability ([3]; first compound 0.4 µM): 1.08
- relative viability ([3]; first compound 1.265 µM): 0.396
- relative viability ([3]; first compound 4 µM): 0.0921
- relative viability ([4]; first compound 0.04 µM): 0.907
- relative viability ([4]; first compound 0.1265 µM): 0.975
- relative viability ([4]; first compound 0.4 µM): 0.925
- relative viability ([4]; first compound 1.265 µM): 0.447
- relative viability ([4]; first compound 4 µM): 0.0537

Cell Line: IA-LM
- relative viability ([1]; first compound 0.04 µM): 0.494
- relative viability ([1]; first compound 0.1265 µM): 0.2
- relative viability ([1]; first compound 0.4 µM): 0.153
- relative viability ([1]; first compound 1.265 µM): 0.0773
- relative viability ([1]; first compound 4 µM): 0.0621
- relative viability ([2]; first compound 0.04 µM): 0.314
- relative viability ([2]; first compound 0.1265 µM): 0.211
- relative viability ([2]; first compound 0.4 µM): 0.134
- relative viability ([2]; first compound 1.265 µM): 0.0572
- relative viability ([2]; first compound 4 µM): 0.0763
- relative viability ([4]; first compound 0.04 µM): 0.765
- relative viability ([4]; first compound 0.1265 µM): 0.329
- relative viability ([4]; first compound 0.4 µM): 0.135
- relative viability ([4]; first compound 1.265 µM): 0.0463
- relative viability ([4]; first compound 4 µM): 0.0394
